Data published in article PMC10709440, “High-throughput ligand profile characterization in novel cell lines expressing seven heterologous insect olfactory receptors for the detection of volatile plant biomarkers” (Scientific Reports, 2023).
Where two headings read alike, the source gives them in different places.

How the values were obtained:
Drosophila OR71a = molecular target: T1, Drosophila OR71a (Drosophila melanogaster, UniProt Q9VUK5); assay: Calcium ion fluorescence (GCaMP6) assay, OR71a stable HEK293 cell line; assay type: cell-based; conditions: for Average response / OR71a response (VUAA1-normalized) at 1 μM / OR71a response (VUAA1-normalized) at 10 μM / OR71a response (VUAA1-normalized) at 100 μM: OR71a cell line; for Average response: VUAA1-normalized response, mean of biological replicates; for OR71a Average response (VUAA1-normalized): 50 μM VUAA1 = 1
T1 construct: expressed in transfected cells
T1 sequence (Q9VUK5 1-378): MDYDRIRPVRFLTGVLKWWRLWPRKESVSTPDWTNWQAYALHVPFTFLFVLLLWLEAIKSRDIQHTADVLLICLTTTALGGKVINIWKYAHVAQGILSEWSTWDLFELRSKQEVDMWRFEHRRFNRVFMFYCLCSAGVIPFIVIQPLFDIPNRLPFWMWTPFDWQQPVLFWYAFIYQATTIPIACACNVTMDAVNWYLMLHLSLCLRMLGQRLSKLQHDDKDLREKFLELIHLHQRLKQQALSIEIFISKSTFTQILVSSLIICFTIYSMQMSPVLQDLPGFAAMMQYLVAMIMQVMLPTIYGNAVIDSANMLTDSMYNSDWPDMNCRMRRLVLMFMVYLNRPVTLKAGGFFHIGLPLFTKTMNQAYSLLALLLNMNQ
T1 sequence (Q9VNB5 1-486 partner): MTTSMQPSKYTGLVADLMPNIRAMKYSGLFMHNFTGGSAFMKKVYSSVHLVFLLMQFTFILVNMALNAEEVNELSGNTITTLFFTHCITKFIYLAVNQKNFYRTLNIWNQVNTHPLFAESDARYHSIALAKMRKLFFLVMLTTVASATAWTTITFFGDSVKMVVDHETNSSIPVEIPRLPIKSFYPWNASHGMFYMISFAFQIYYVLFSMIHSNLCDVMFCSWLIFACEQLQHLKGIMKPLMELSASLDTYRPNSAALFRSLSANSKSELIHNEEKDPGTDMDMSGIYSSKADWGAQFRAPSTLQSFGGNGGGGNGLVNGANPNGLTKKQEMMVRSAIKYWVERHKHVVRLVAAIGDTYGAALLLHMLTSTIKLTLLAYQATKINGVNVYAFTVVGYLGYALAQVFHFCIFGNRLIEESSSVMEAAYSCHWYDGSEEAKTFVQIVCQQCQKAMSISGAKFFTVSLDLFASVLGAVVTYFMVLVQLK
Procedure, shortened: (§1)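 Responses are VUAA1-normalized ΔF: each VOC-evoked calcium signal, (FMAX−F0)/F0 over 30 s after injection, divided by the same line's mean 50 µM VUAA1 response. Cells were doxycycline-induced HEK293 with GCaMP6 and the cognate Drosophila OR, in HEPES buffer pH 7.3; ligands tested 0.01–100 μM.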

Drosophila OR49b = molecular target: T2, Drosophila OR49b (Drosophila melanogaster, UniProt Q9V6H2); assay: cell-based; conditions: for activation at 1 µM / activation at 10 µM / activation at 100 µM: HEK293; for Average response / OR49b response (VUAA1-normalized) at 1 μM / OR49b response (VUAA1-normalized) at 10 μM / OR49b response (VUAA1-normalized) at 100 μM: OR49b cell line; for Average response: mean of biological replicates; for DF norm AVERAGE OR49b: threshold 0.05, below shown as 0
T2 construct: expressed in transfected cells
T2 sequence (Q9V6H2 1-375): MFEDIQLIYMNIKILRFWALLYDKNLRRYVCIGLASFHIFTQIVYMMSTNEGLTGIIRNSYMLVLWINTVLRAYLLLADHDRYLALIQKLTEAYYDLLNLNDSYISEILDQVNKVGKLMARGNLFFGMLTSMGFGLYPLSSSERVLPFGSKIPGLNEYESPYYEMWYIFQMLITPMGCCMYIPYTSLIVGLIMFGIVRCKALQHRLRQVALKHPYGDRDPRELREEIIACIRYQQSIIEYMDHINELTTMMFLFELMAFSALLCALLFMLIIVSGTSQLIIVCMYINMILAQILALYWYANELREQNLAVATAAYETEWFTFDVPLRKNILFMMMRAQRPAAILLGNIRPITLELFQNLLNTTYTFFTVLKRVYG
T2 sequence (Q9VNB5 1-486 partner): T1 sequence (Q9VNB5 1-486 partner)
Procedure, shortened: as §1

[1] = HEK293, read-out: OR71a response (VUAA1-normalized response)
[2] = ligand concentration 1 (unit not given), threshold 0.05, below shown as 0
[3] = ligand concentration 10 (unit not given), threshold 0.05, below shown as 0
[4] = ligand concentration 100 (unit not given), threshold 0.05, below shown as 0
[5] = ligand concentration 1 (unit not given)
[6] = ligand concentration 10 (unit not given)
[7] = ligand concentration 100 (unit not given)
[8] = 1 μM VOC, 50 μM VUAA1 = 1, read-out: OR49b Average response (VUAA1-normalized)
[9] = 10 μM VOC, 50 μM VUAA1 = 1, read-out: OR49b Average response (VUAA1-normalized)
[10] = 100 μM VOC, 50 μM VUAA1 = 1, read-out: OR49b Average response (VUAA1-normalized)

SMILES | Average response (Drosophila OR71a; cc. 1 µM) | Average response (Drosophila OR71a; cc. 10 µM) | Average response (Drosophila OR71a; cc. 100 µM) | Average response (Drosophila OR49b; odorant cc. 1 µM) | Average response (Drosophila OR49b; odorant cc. 10 µM) | Average response (Drosophila OR49b; odorant cc. 100 µM) | DF norm AVERAGE OR71a (Drosophila OR71a; [2]) | DF norm AVERAGE OR71a (Drosophila OR71a; [3]) | DF norm AVERAGE OR71a (Drosophila OR71a; [4]) | DF norm AVERAGE OR49b (Drosophila OR49b; [5]) | DF norm AVERAGE OR49b (Drosophila OR49b; [6]) | DF norm AVERAGE OR49b (Drosophila OR49b; [7]) | OR71a response (VUAA1-normalized) at 1 μM (Drosophila OR71a; VOC concentration 1 μM) | OR71a response (VUAA1-normalized) at 10 μM (Drosophila OR71a; VOC concentration 10 μM) | OR71a response (VUAA1-normalized) at 100 μM (Drosophila OR71a; VOC concentration 100 μM) | OR49b response (VUAA1-normalized) at 1 μM (Drosophila OR49b; VOC concentration 1 μM) | OR49b response (VUAA1-normalized) at 10 μM (Drosophila OR49b; VOC concentration 10 μM) | OR49b response (VUAA1-normalized) at 100 μM (Drosophila OR49b; VOC concentration 100 μM) | activation at 1 µM (Drosophila OR49b; [8]) | activation at 10 µM (Drosophila OR49b; [9]) | further results
CCCCCCCO [1-heptanol] | 0.00 | 0.00 | 0.00 | 0.00 | 0.00 | 0.06 |  |  |  |  |  |  |  |  |  |  |  |  |  |  | activation at 1 µM (Drosophila OR71a; [1]): 0%; activation at 10 µM (Drosophila OR71a; [1]): 0%; activation at 100 µM (Drosophila OR71a; [1]): 0%; DF norm AVERAGE OR71a (Drosophila OR71a; concentration 1, normalized fluorescence change, values below 0.05 threshold given as 0): 0; DF norm AVERAGE OR71a (Drosophila OR71a; concentration 10, normalized fluorescence change, values below 0.05 threshold given as 0): 0; DF norm AVERAGE OR71a (Drosophila OR71a; concentration 100, normalized fluorescence change, values below 0.05 threshold given as 0): 0; activation at 1 µM (Drosophila OR49b; VOC concentration 1 μM, read-out: OR49b response (VUAA1-normalized response)): 0%; activation at 10 µM (Drosophila OR49b; VOC concentration 10 μM, read-out: OR49b response (VUAA1-normalized response)): 0%; activation at 100 µM (Drosophila OR49b; VOC concentration 100 μM, read-out: OR49b response (VUAA1-normalized response)): 6%
C=C(C)[C@H]1CC=C(C)CC1 [limonene] | 0.00 | 0.00 | 0.00 | 0.00 | 0.00 | 0.028 | 0 | 0 | 0 | 0 | 0 | 0 |  |  |  |  |  |  |  |  | OR71a response (VUAA1-normalized response) (Drosophila OR71a; VOC concentration 1 μM): 0.00; OR71a response (VUAA1-normalized response) (Drosophila OR71a; VOC concentration 10 μM): 0.00; OR71a response (VUAA1-normalized response) (Drosophila OR71a; VOC concentration 100 μM): 0.00; OR49b response (VUAA1-normalized response) (Drosophila OR49b; VOC concentration 1 μM): 0.00; OR49b response (VUAA1-normalized response) (Drosophila OR49b; VOC concentration 10 μM): 0.00; OR49b response (VUAA1-normalized response) (Drosophila OR49b; VOC concentration 100 μM): 0.00
Cc1ccc(C(C)C)cc1 [p-cymene] | 0.00 | 0.023 | 0.00 | 0.00 | 0.00 | 0.00 | 0 | 0 | 0 | 0 | 0 | 0 | 0.00 | 0.00 | 0.00 | 0.00 | 0.00 | 0.00 |  |  | 
CCCCCOC(C)=O [pentyl acetate] | 0.00 | 0.0163 | 0.09 | 0.08 | 0.0108 | 0.06 | 0 | 0 | 0.08698 | 0.07954 | 0 | 0.06097 | 0.00 | 0.00 | 0.09 | 0.08 | 0.00 | 0.06 |  |  | 
Cc1cccc(C)c1 [m-xylene] | 0.00 | 0.00 | 0.00 | 0.00 | 0.0251 | 0.27 | 0 | 0 | 0 | 0 | 0 | 0.2713 | 0.00 | 0.00 | 0.00 | 0.00 | 0.00 | 0.27 | 0% | 3% | activation at 100 µM (Drosophila OR49b; [10]): 27%
COC(=O)c1ccccc1O [methyl salicylate] | 0.00 | 0.0108 | 0.12 | 0.0269 | 0.00333 | 0.12 | 0 | 0 | 0.1155 | 0 | 0 | 0.1238 | 0.00 | 0.00 | 0.12 | 0.00 | 0.00 | 0.12 | 3% | 0% | OR71a Average response (VUAA1-normalized) (Drosophila OR71a; 1 μM VOC): 0.00; OR71a Average response (VUAA1-normalized) (Drosophila OR71a; 10 μM VOC): 0.01; OR71a Average response (VUAA1-normalized) (Drosophila OR71a; 100 μM VOC): 0.12; activation at 100 µM (Drosophila OR49b; [10]): 12%
